Assay results published in PMC11406516, “The Tuberculosis Drug Candidate SQ109 and Its Analogs Have Multistage Activity against Plasmodium falciparum” (ACS Infectious Diseases, 2024).
In brackets after ≈: the same amount, converted by molar mass. Read-outs that look alike come from different tables or passages of the source. Marks after values point to notes of the source that are not given here.

Columns and labels:
clinical isolate SB03 = experiment: Ex vivo activity on clinical isolate SB03; type: cell-based; details: Plasmodium falciparum, read-out: IC50 SB03
From the text: (§1) Since SB03/05 are both multiclonal,[27] this warrants further investigation into the activity of this series toward clinical gametocytes.
(§2) (A) Dose–response analysis of SQ109 on clinical isolates SB03 and SB05 in comparison to lab-adapted NF54 P. falciparum parasites. Data are from at least 2 independent biological repeats, mean ± SE indicated, * P < 0.05 is indicated. (B) IC50 for SQ109 analogs 13 and 19 against a contemporary African field isolate SB05. […] TEXT PRINTED IN THE PICTURE: (A) SQ109/1: IC50 (μM), NF54: 1.58 ± 0.20; IC50 (μM), SB03: 0.63 ± 0.01; IC50 (μM), SB05: 0.90 DOUBTS OF THE COPYIST ABOUT THIS PICTURE: Panel A: the three IC50 values are matched to NF54, SB03 and SB05 only by line style (black dashed, grey solid, grey dashed), not by a printed label beside the numbers.

[1] = tested on: African field isolate SB05; experiment: Ex vivo activity on clinical isolate SB05; type: cell-based, Plasmodium falciparum; details: for IC50: Plasmodium falciparum, read-out: IC50 SB05
From the text: as §1, §2

[2] = tested on: immature-stage gametocytes (IGc, stage II/III); experiment: Immature-stage gametocyte activity; type: cell-based; details: Plasmodium falciparum, 48 h drug pressure
Procedure: Figure 1 SQ109 is a gametocyte-targeting compound. (A) IC50 for parent compound SQ109/1 on asexual parasites (ABS), immature-stage gametocytes (IGc, stage II/III), or late-stage gametocytes (LGc, stage IV/V), under 48 h drug pressure. IC50 ABS: 1.58 ± 0.2 μM; IC50 IGc: 0.38 ± 0.10 μM; IC50 LGc: 0.14 ± 0.03 μM; ** P < 0.01 indicates IGc and LGc vs ABS. (B) Chemical structure and summary of the designed structure–activity relationships (SAR-1, SAR-2 and SAR-3) around SQ109/1. Data are from >2 independent biological repeats, mean ± SE indicated, unpaired Student’s t-test applied.

in vitro = in vitro ADME; details: microsomes
Procedure: The microsomal stability assay used a single-point assay design (Di et al., 2004). Briefly, the compounds were incubated at 1 μM in human, rat, and mouse liver microsomes (0.4 mg/mL) for 30 min at 37 °C. Reactions were quenched by adding ice-cold acetonitrile containing internal standard (carbamazepine, 0.0236 μg/mL). The samples were then centrifuged, and the samples were analyzed by liquid chromatography with tandem mass spectrometry (LC-MS/MS) (Agilent Rapid Resolution HPLC, AB SCIEX 4500 MS) for the disappearance of the parent compound. Half-life, clearance and hepatic […] ratios were determined using standard equations.

PfDd2 parasites = experiment: Asexual blood stage activity, chloroquine-resistant Dd2; type: cell-based; details: Plasmodium falciparum, DD2, read-out: Pf ABS IC50 (Dd2)
From the text: This strain is highly resistant to chloroquine and other antimalarials and is associated with increased export of e.g., chloroquine from the digestive vacuole.[23] This phenotype was also replicated in PfDd2 parasites, also resistant to chloroquine (among other antimalarials), with 4 and 5 losing activity but 1 similarly active (Table 1). These aromatic compounds may therefore be subject to resistance mechanisms similar to those found with chloroquine.

HepG2 cells [3] = experiment: HepG2 cytotoxicity, LDH release assay; details: Homo sapiens, HepG2, 24 h, read-out: HepG2 EC50
Procedure: (§3) Furthermore, compounds were evaluated against late (stage IV/V) gametocytes from PfNF54 (PfNF54 LGc), with viability detected with PrestoBlue,[15] and orthogonally evaluated for toxicity against a human hepatocellular carcinoma line, HepG2.[16]
(§4) Human hepatocellular liver carcinoma cells (HepG2) were cultivated in vitro in Dulbecco’s Modified Eagle’s Medium (DMEM) supplemented with 10% (v/v) heat inactivated fetal bovine serum and 1% (v/v) penicillin/streptomycin.[14] Cells were detached with trypsin treatment at 80% confluency and were seeded in 96-well plates to adhere for 24 h under 5% CO2, humid (95%) conditions. Cells were subsequently exposed to drug pressure for 24 h and cytotoxicity was then determined using the lactate dehydrogenase (LDH) release assay through the colorimetric detection at 450 nm, as previously outlined.[4],[16]

PfNF54 ABS [4] = tested on: PfNF54 ABS; set-up: method as in Stampolaki et al.[5]; details: drug-sensitive NF54; ref Stampolaki et al.[5]; read-out: Pf ABS IC50 NF54; cited from earlier work
female gametes [5] = tested on: female gametes; set-up: method as in Reader et al.[4]; details: ref Reader et al.[4]; cited from earlier work
oocyst formation [6] = details: cited from earlier work
[7] = tested on: PfNF54 LGc (stage IV/V gametocytes); experiment: PrestoBlue late-stage gametocyte viability assay; type: cell-based, Plasmodium falciparum; details: for IC50: Plasmodium falciparum, stage IV/V gametocytes, 48 h drug pressure, read-out: PfNF54 LGc IC50
Procedure: Gametocytogenesis was induced on highly synchronized (>95%) asexual ring-stage parasites from PfNF54 at 0.5% parasitemia and 6% hematocrit and thereafter maintained in glucose-deprived media as previously described.[29],[15] After 3 days, the hematocrit was decreased to 4%. Parasites were maintained in complete culture media supplemented with 50 mM N-acetyl-glucosamine 5–10 days post induction to inhibit proliferation of residual asexual blood stages. Gametocyte progression and morphology was also monitored microscopically using Giemsa-stained thin smears.
activity against the sexual stages of P. falciparum was evaluated using the PrestoBlue fluorescence assay as previously described.[4] Activity was measured on PfNF54 stage IV/V gametocytes (2% gametocytemia, 5% hematocrit) previously seeded with compounds (in non-lethal DMSO) for 48 h drug pressure, after which PrestoBlue reagent was added and incubated for 2 h. Fluorescence was detected in the supernatant at 612 nm. Dihydroartemisinin (DHA) was used as a positive drug control.

PfK1 = experiment: SYBR Green I proliferation assay, asexual blood stages, multidrug-resistant K1; details: for IC50: Plasmodium falciparum, K1, read-out: Pf ABS IC50 K1; for fold higher IC50 against PfK1: PfK1 vs NF54
Procedure: (§5) P. falciparum asexual parasites were cultured from drug-sensitive NF54 (PfNF54) and multidrug resistant strains PfK1. Parasites were maintained in human erythrocytes (O+, suspended at 5% hematocrit) in RPMI-1640 culture medium (23.81 mM sodium bicarbonate, 0.024 mg/mL gentamycin, 25 mM HEPES pH 7.5, 0.2% D-glucose, 0.2 mM hypoxanthine and Albumax II) under hypoxic conditions (5% CO2, 5% O2 and 90% N2) with moderate shaking (60 rpm) at 37 °C. Cultures were synchronized to >95% in the ring stage with 5% (w/v) D-sorbitol treatment.[28]
(§6) Activity against the asexual stage of P. falciparum was evaluated using the SYBR Green I-based fluorescence assay as previously described.[4],[16] Cellular proliferation was measured on synchronized in vitro PfNF54 ring-stage parasites (1% parasitemia, 2% hematocrit), following drug pressure for 96 h. Chloroquine was used as the positive drug control for complete inhibition of parasite proliferation.

male gametes (PfNF54) [8] = tested on: male gametes (PfNF54); set-up: method as in Reader et al.[4]; details: ref Reader et al.[4]; cited from earlier work
female gametes [9] = experiment: Female gamete inhibition assay; type: cell-based, Plasmodium falciparum; set-up: concentration or dose not given beside the values
Procedure: Similarly, female gametes were activated as described previously.[31] Monoclonal anti-Pfs antibody conjugated to FITC was used to detect female gametes. Image acquisition was performed using a Zeiss Axio Lab.A1 epifluorescence microscope with a 100/1.4 numerical aperture (NA) oil immersion. Thirty images were captured per sample and analyzed manually.

male gametes (PfNF54) [10] = experiment: Male gamete exflagellation inhibition assay (EIA); type: cell-based; details: Plasmodium falciparum; 2 μM, 48 h; read-out: male gamete inhibition %
Procedure: The EIA was performed using video microscopy by capturing the movement of exflagellation centers over time as previously described.[4],[30] Mature PfNF54 stage V gametocytes (>95%;) were treated with 2 μM of drug for 48 h before the activation of exflagellation, without removing drug pressure. Movement was semi-automatically quantified from 15 videos of 8–10 s each between 15 and 22.5 min after incubation. Each video was analyzed using ICY-bio image analysis software.

oocyst formation [11] = experiment: Standard membrane feeding assay (SMFA), oocyst formation in Anopheles coluzzii; type: in vivo; details: Plasmodium falciparum, 48 h drug treatment at 2 μM, single biological repeat
Procedure: Transmission-blocking activity was confirmed in the standard membrane feeding assay (SMFA), by determining transmission-reducing activity (TRA; reduction in oocyst counts) and transmission-blocking activity (TBA, reduction in oocyst prevalence), 8–10 days after feeding female mosquitoes on gametocyte-infected blood, treated with selected compounds (at 2 μM).
SMFA was performed using glass feeders as is outlined.[4],[16] Once again, mature stage V gametocytes (>95%) were treated with 2 μM of each compound for 48 h prior to feeding. Anopheles coluzzii females were allowed to feed on gametocyte cultures (1.5–2.5% gametocytemia, 50% hematocrit in A+ male serum with fresh erythrocytes) in the dark for 40 min. All unfed or partially fed mosquitoes were removed, and remaining females housed for 8–10 days. Mosquitoes were dissected to remove midguts, and oocysts counted under bright field illumination at ×20–×40 magnification. The percentage of block in transmission (transmission-blocking activity; TBA) and the percentage of reduction in the number of oocysts (transmission-reducing activity; TRA) were calculated after normalizing to the control untreated sample.

physchem = type: physicochemical; details: 37 °C, pH 6.5, aqueous buffer, thermodynamic from solid
Procedure: The stock solutions (10^–2 M) of the assayed compounds were diluted to decreased molarity, from 300 to 0.1 μM, in 384 well transparent plate (Greiner 781801) with 1% DMSO:99% PBS buffer. Then, they were incubated at 37 °C and the light scattering was measured after 2 h in a NEPHELOstar Plus (BMG LABTECH). The results were adjusted to a segmented regression to obtain the maximum concentration in which compounds are soluble.
The solubility of each product was evaluated using an HPLC Agilent 1100 with a DAD detector. The samples were injected in an Agilent Poroshell 120 EC-C18, 2.7 μm, 50 mm × 4.6 mm column at 40 °C and 0.6 mL/min flow. The mobile phase was a mixture of A = water with 0.05% formic acid and B = acetonitrile with 0.05% formic acid. The procedure followed was from 95% A–5% B to 100% B in 3 min, 100% B in 3 min, from 100% B to 95% A–5% B in 1 min, 95% A–5% B in 3 min; the injection volume was set at 75 μL. […] The samples remained at these conditions between 12–24 h. Then, the samples were filtered through a 0.45 μm PVDF filter and either directly analyzed or diluted before analyzing. The obtained area under the curve was compared with the one from the standard solution.

HepG2 cells [12] = tested on: HepG2 cells; set-up: method as in Stampolaki et al.[5]; details: compound at 20 μM; ref Stampolaki et al.[5]; cited from earlier work
PfNF54 ABS [13] = experiment: SYBR Green I proliferation assay, asexual blood stages, drug-sensitive NF54; details: for IC50: Plasmodium falciparum, NF54, 96 h, read-out: Pf ABS IC50 NF54
Procedure: as §5, §6

HepG2 cells [14] = tested on: HepG2 cells
Procedure: as §3, §4

[15] = 48 h drug treatment at 2 μM, ref Reader et al.[4]
[16] = read-out: oocyst formation (% inhibition) TBA
[17] = read-out: oocyst formation (% inhibition) TRA

Row | SMILES | IC50 [1] | microsomal CLint at 1 µM (in vitro; human) | microsomal CLint at 1 µM (in vitro; mouse) | microsomal CLint at 1 µM (in vitro; rat) | IC50 (PfDd2 parasites) | EC50 (HepG2 cells [3]) | IC50 (PfNF54 ABS [4]) | IC50 [7] | IC50 (PfK1) | female gamete inhibition % (female gametes [9]) | inhibition at 2 µM (male gametes (PfNF54) [10]) | inhibition at 2 µM (oocyst formation [11]; [16]) | solubility (physchem) | fold higher IC50 against PfK1 (PfK1) | HepG2 % viability (HepG2 cells [12]) | inhibition at 2 µM (oocyst formation [11]; [17]) | IC50 (PfNF54 ABS [13]) | further results
1 | CC(C)=CCC/C(C)=C/CNCCNC1C2CC3CC(C2)CC1C3 (stereo not drawn) [Compound 1, N-geranyl-N′-(2-adamantyl)ethane-1,2-diamine, reference compound] | 900 nM | 442 µL/min/mg | 410 µL/min/mg | 385 µL/min/mg | 1440 nM | 9210 ± 1990 nM | 1580 ± 200 nM | 140 ± 30 nM | 3480 ± 240 nM |  |  |  |  |  |  |  |  | IC50 (clinical isolate SB03): 630 ± 10 nM; shift in IC50, clinical isolates vs NF54 ([1]; contemporary African clinical isolates ex vivo): no significant shift; IC50 [2]: 380 nM; female gamete inhibition % (female gametes [5]): 51.74 ± 5.40 ^c %; oocyst formation (% inhibition) TBA (oocyst formation [6]; [15]): 36.0 ± 10.6 ^c %; oocyst formation (% inhibition) TRA (oocyst formation [6]; [15]): 76.0 ± 4.75 ^c %; transmission-reducing activity (oocyst formation [6]): 80%; selectivity toward LGc compared to ABS ([7]; LGc IC50 vs ABS IC50): > 10 fold; male gamete inhibition % (male gametes (PfNF54) [8]): 72.98 ± 5.97 ^c %
2 | CC(C)=CCC/C(C)=C/CNCCNC1(Cc2ccccc2)C2CC3CC(C2)CC1C3 (stereo not drawn) [Compound 4] |  |  |  |  | 8110 nM |  | 320 ± 30 nM | 160 ± 20 nM | > 5000 nM | 74.48 ± 2.26% | 43.9 ± 10.6% | 26% | 13.9 µM (≈ 5.85 µg/mL) | 16 × | 100%^c |  |  | 
3 | CC(C)=CCC/C(C)=C/CNCCNC1(c2ccccc2)C2CC3CC(C2)CC1C3 (stereo not drawn) [Compound 5] |  | 400 µL/min/mg | 343 µL/min/mg | 514 µL/min/mg | 5660 nM |  | 420 ± 90 nM | 210 ± 20 nM | 5990 ± 630 nM | 61.03 ± 14.35% | 48 ± 24.8% | 63% | 30 µM (≈ 12.2 µg/mL) | 14 × | 100%^c | 38% |  | 
4 | CC(C)=CCC/C(C)=C/CNCCCNC1C2CC3CC(C2)CC1C3 (stereo not drawn) [Compound 13] | 490 ± 90 nM |  |  |  |  | 11800 ± 830 nM |  | 120 ± 30 nM | 1050 ± 90 nM | 87.02 ± 3.68% | 90.9 ± 9.09% | 64% |  |  |  | 70% | 980 ± 80 nM | fold improvement in ABS activity compared to 1 (PfNF54 ABS [13]; PfNF54 ABS): 1.6 fold; fold improvement in gametocyte activity compared to 1 ([7]; PfNF54 LGc): 1.2 fold
5 | CC(C)CCCC(C)CCNCCNC1C2CC3CC(C2)CC1C3 (stereo not drawn) [Compound 19] | 950 ± 310 nM |  |  |  |  | 3500 ± 90 nM |  | 300 ± 30 nM | 110 ± 10 nM | 86.30 ± 2.58% | 95.5 ± 4.55% | 36% |  |  |  | 47% | 200 nM | cytotoxicity to HepG2 cells (in words) (HepG2 cells [14]): moderately cytotoxic
